Assay results reported in US20230104936A1, “TRPML MODULATORS” (Casma Therapeutics, Inc., priority 2019, published 2023).

System: TFEB
Assay: TFEB nuclear translocation assay, HeLa wt cells
Type: cell-based
Conditions: 2 hrs compound treatment, Table 1 does not say HeLa wt or TRPML1 KO
Summary of the method: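 Using 20× epifluorescence of fixed, anti-TFEB-stained HeLa wt cells treated 2 hrs with compound, nuclear versus perinuclear ring intensity was quantified over four fields per well, yielding AC50 values.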

Row | Compound | AC50 (Homo sapiens, HeLa, 2 h) | AC50
1 | CN(C)S(=O)(=O)c1ccc(S(=O)(=O)Nc2ccccc2[C@H]2CC[C@H](c3ccc(Cl)cc3F)CC2)cc1 [Compound A-70, N1-(2-(4-(4-chloro-2-fluorophenyl)cyclohexyl)phenyl)-N4,N4-dimethylbenzene-1,4-disulfonamide] | ≤ 2000 nM | –
2 | CN(C)S(=O)(=O)c1ccc(S(=O)(=O)Nc2ccccc2N2C3CC2CN(c2ccc(Cl)cc2F)C3)cc1 [Compound A-28, N4-{2-[3-(4-chloro-2-fluorophenyl)-3,6-diazabicyclo[3.1.1]heptan-6-yl]phenyl}-N1,N1-dimethylbenzene-1,4-disulfonamide] | – | ≤ 2000 nM
3 | C[C@H](c1cccc(F)c1N1CCC(C2(N3CCOCC3)CC2)CC1)S(=O)(=O)c1ccc(S(=N)(=O)N(C)C)cc1 (single isomer, unassigned) [Compound A-892] | 8010 to 9990 nM | –
4 | CN(C)C(=O)c1ccc(S(=O)(=O)Nc2ccccc2N2CCC(c3ccc(Cl)cc3F)CC2)cc1 [Compound A-44, 4-({2-[4-(4-chloro-2-fluorophenyl)piperidin-1-yl]phenyl}sulfamoyl)-N,N-dimethylbenzamide] | ≤ 2000 nM | –
5 | CC(O)C1(C)CCN(c2ccccc2NS(=O)(=O)c2ccc(S(=O)(=O)N(C)C)cc2)CC1 (stereo not shown) [Compound A-557, N1-(2-(4-(1-hydroxyethyl)-4-methylpiperidin-1-yl)phenyl)-N4,N4-dimethylbenzene-1,4-disulfonamide] | 2010 to 8000 nM | –
6 | CC(c1cccc(F)c1N1CCC2(CC1)COC(C)(C)C2)S(=O)(=O)c1ccc(S(=O)(=O)N(C)C)cc1 (stereo not shown) [Compound A-752, 4-[1-(2-{3,3-dimethyl-2-oxa-8-azaspiro[4.5]decan-8-yl}-3-fluorophenyl)ethanesulfonyl]-N,N-dimethylbenzene-1-sulfonamide] | ≤ 2000 nM | –
7 | COc1ccc(S(=O)(=O)Nc2ccccc2N2CCC(c3ccc(Cl)cc3F)CC2)cc1 [Compound A-99, N-{2-[4-(4-chloro-2-fluorophenyl)piperidin-1-yl]phenyl}-4-methoxybenzene-1-sulfonamide] | ≤ 2000 nM | –
8 | CN(C)S(=O)(=O)c1ccc(S(=O)(=O)Nc2ccccc2N2CCCC3(CCCOC3)C2)cc1 (stereo not shown) [Compound A-511, N1,N1-dimethyl-N4-(2-{2-oxa-8-azaspiro[5.5]undecan-8-yl}phenyl)benzene-1,4-disulfonamide] | ≤ 2000 nM | –
9 | COCC1(C)CCN(c2ccccc2NS(=O)(=O)Cc2cccc(Cl)c2)CC1 [Compound A-602, 1-(3-chlorophenyl)-N-{2-[4-(methoxymethyl)-4-methylpiperidin-1-yl]phenyl}methanesulfonamide] | 2010 to 8000 nM | –
10 | CN1Cc2cc(S(=O)(=O)Nc3ccccc3N3CCC(c4ccc(Cl)cc4F)CC3)ccc2C1=O [Compound A-61, N-{2-[4-(4-chloro-2-fluorophenyl)piperidin-1-yl]phenyl}-2-methyl-1-oxo-2,3-dihydro-1H-isoindole-5-sulfonamide] | ≥ 10000 nM | –
11 | CN(C)S(=O)(=O)c1ccc(S(=O)(=O)Nc2ccccc2N2CCC(O)(c3ncccc3F)CC2)cc1 [Compound A-355, N4-{2-[4-(3-fluoropyridin-2-yl)-4-hydroxypiperidin-1-yl]phenyl}-N1,N1-dimethylbenzene-1,4-disulfonamide] | 2010 to 8000 nM | –
12 | COC1Cc2ccc(S(=O)(=O)Nc3ccccc3N3CCC4(CC3)COC(C)(C)C4)cc2C1 (stereo not shown) [Compound A-659, N-(2-{3,3-dimethyl-2-oxa-8-azaspiro[4.5]decan-8-yl]phenyl)-2-methoxy-2,3-dihydro-1H-indene-5-sulfonamide] | 2010 to 8000 nM | –
13 | CN(C)S(=O)(=O)c1ccc(S(=O)(=O)N(C)c2cc(Cl)ccc2N2CCOCC2)cc1 [Compound A-285, N1-[5-chloro-2-(morpholin-4-yl)phenyl]-N1,N4,N4-trimethylbenzene-1,4-disulfonamide] | ≥ 10000 nM | –
14 | Cc1ccc(CS(=O)(=O)Nc2ccccc2N2CCC3(CC2)COC(C)(C)C3)cc1F [Compound A-677, N-(2-{3,3-dimethyl-2-oxa-8-azaspiro[4.5]decan-8-yl}phenyl)-1-(3-fluoro-4-methylphenyl)methanesulfonamide] | ≤ 2000 nM | –
15 | CN(C)S(=O)(=O)c1ccc(S(=O)(=O)Nc2cccc(F)c2N2CCC(N3CCC4(CCOC4)C3)CC2)cc1 (stereo not shown) [Compound A-874, N4-[3-fluoro-2-(4-{2-oxa-7-azaspiro[4.4]nonan-7-yl}piperidin-1-yl)phenyl]-N1,N1-dimethylbenzene-1,4-disulfonamide] | 2010 to 8000 nM | –
16 | O=S(=O)(Nc1cccc(N2CCC(c3ccc(Cl)cc3F)CC2)c1)c1ccccc1F [Compound A-114, N-{3-[4-(4-chloro-2-fluorophenyl)piperidin-1-yl]phenyl}-2-fluorobenzene-1-sulfonamide] | ≥ 10000 nM | –
17 | COCC(C)N1CCN(c2ccccc2NS(=O)(=O)c2ccc(S(=O)(=O)N(C)C)cc2)CC1 (stereo not shown) [Compound A-418, N4-{2-[4-(1-methoxypropan-2-yl)piperazin-1-yl]phenyl}-N1,N1-dimethylbenzene-1,4-disulfonamide] | 2010 to 8000 nM | –

Row | Compound | AC50 (Homo sapiens, HeLa, 2 h) | AC50
18 | C[C@@H]1CN(CC2CCN(c3ccccc3NS(=O)(=O)c3ccc(S(=O)(=O)N(C)C)cc3)CC2)C[C@H](C)O1 [Compound A-544, N4-[2-(4-{[(2R,6S)-2,6-dimethylmorpholin-4-yl]methyl}piperidin-1-yl)phenyl]-N1,N1-dimethylbenzene-1,4-disulfonamide] | ≤ 2000 nM | –
19 | COCC1(C)CCN(c2ccccc2NS(=O)(=O)c2ccc(OCC3CC3)cc2)CC1 [Compound A-555, 4-(cyclopropylmethoxy)-N-{2-[4-(methoxymethyl)-4-methylpiperidin-1-yl]phenyl}benzene-1-sulfonamide] | 2010 to 8000 nM | –
20 | O=S(=O)(Nc1cccc(Cl)c1N1CCOCC1)c1ccccc1C1CC1 [Compound A-392, N-[3-chloro-2-(morpholin-4-yl)phenyl]-2-cyclopropylbenzene-1-sulfonamide] | 2010 to 8000 nM | –
21 | C[C@@H]1CN(CC2CCN(c3c(F)cccc3NS(=O)(=O)c3ccc(S(=O)(=O)C(F)F)cc3)CC2)C[C@H](C)O1 [Compound A-758, 4-difluoromethanesulfonyl-N-[2-(4-{[(2R,6S)-2,6-dimethylmorpholin-4-yl]methyl}piperidin-1-yl)-3-fluorophenyl]benzene-1-sulfonamide] | ≤ 2000 nM | –
22 | COCC1(C)CCN(c2ccccc2NS(=O)(=O)Cc2ccc(C)c(C)c2)CC1 [Compound A-642, 1-(3,4-dimethylphenyl)-N-{2-[4-(methoxymethyl)-4-methylpiperidin-1-yl]phenyl}methanesulfonamide] | ≤ 2000 nM | –
23 | CN(C)S(=O)(=O)c1ccc(S(=O)(=O)Nc2ccccc2N2CCN([C@@H]3C[C@@H]4CC[C@H]3C4)CC2)cc1 (racemic) [Compound A-421, rac-N4-(2-{4-[(1R,2S,4S)-bicyclo[2.2.1]heptan-2-yl]piperazin-1-yl}phenyl)-N1,N1-dimethylbenzene-1,4-disulfonamide] | ≤ 2000 nM | –
24 | CC(C)(C)C(=O)N1CCN(c2ccccc2NS(=O)(=O)c2ccc(OCC(F)(F)F)cc2)CC1 [Compound A-591, N-{2-[4-(2,2-dimethylpropanoyl)piperazin-1-yl]phenyl}-4-(2,2,2-trifluoroethoxy)benzene-1-sulfonamide] | ≥ 10000 nM | –
25 | N#Cc1cccc(S(=O)(=O)Nc2ccccc2N2CCN(c3ccc(Cl)cc3F)CC2)c1 [Compound A-5, N-{2-[4-(4-chloro-2-fluorophenyl)piperazin-1-yl]phenyl}-3-cyanobenzene-1-sulfonamide] | 2010 to 8000 nM | –
26 | C[C@@H]1CN(CC2CCN(c3c(F)cccc3NS(=O)(=O)c3ccc(S(=O)(=O)N4CCC4)cc3)CC2)C[C@H](C)O1 [Compound A-765, 4-(azetidine-1-sulfonyl)-N-[2-(4-{[(2R,6S)-2,6-dimethylmorpholin-4-yl]methyl}piperidin-1-yl)-3-fluorophenyl]benzene-1-sulfonamide] | ≤ 2000 nM | –
27 | COCC1(C)CCN(c2ccccc2NS(=O)(=O)c2ccc3c(c2)OC(C)(C)O3)CC1 [Compound A-721, N-{2-[4-(methoxymethyl)-4-methylpiperidin-1-yl]phenyl}-2,2-dimethyl-2H-1,3-benzodioxole-5-sulfonamide] | ≤ 2000 nM | –
28 | C[C@@H]1CN(CC2CCN(c3c(F)cccc3NS(=O)(=O)c3ccc(S(C)(=N)=O)cc3)CC2)C[C@H](C)O1 (single isomer, unassigned) [Compound A-846] | – | 2010 to 8000 nM
29 | CC(C)(C)C(=O)N1CCN(c2ccccc2NS(=O)(=O)c2ccc(OC(F)(F)F)cc2)CC1 [Compound A-568, N-{2-[4-(2,2-dimethylpropanoyl)piperazin-1-yl]phenyl}-4-(trifluoromethoxy)benzene-1-sulfonamide] | 8010 to 9990 nM | –
30 | CN(C)S(=O)(=O)c1ccc(S(=O)(=O)Nc2ccccc2N2CCP(=O)(c3ccc(F)cc3)CC2)cc1 [Compound A-232, N4-{2-[4-(4-fluorophenyl)-4-oxo-1,4λ^5-azaphosphinan-1-yl]phenyl}-N1,N1-dimethylbenzene-1,4-disulfonamide] | ≥ 10000 nM | –
31 | CN1CC2(CCN(c3ccccc3NS(=O)(=O)c3ccc(S(=O)(=O)C(F)F)cc3)CC2)c2ccc(F)cc21 [Compound A-246, 4-difluoromethanesulfonyl-N-(2-{6-fluoro-1-methyl-1,2-dihydrospiro[indole-3,4′-piperidin]-1′-yl}phenyl)benzene-1-sulfonamide] | ≤ 2000 nM | –
32 | CC(c1cccc(F)c1N1CCCCC1)S(=O)(=O)c1ccc2c(c1)CCS2(=N)=O (single isomer, unassigned) [Compound A-959] | ≥ 10000 nM | –
33 | COCC1(C(F)(F)F)CCN(c2ccccc2NS(=O)(=O)c2ccc(S(=O)(=O)N(C)C)cc2)CC1 [Compound A-777, N4-2-[4-(methoxymethyl)-4-(trifluoromethyl)piperidin-1-yl]phenyl-N1,N1-dimethylbenzene-1,4-disulfonamide] | ≤ 2000 nM | –
34 | CN(C)C1CC2(CCN(c3ccccc3NS(=O)(=O)c3ccc(S(=O)(=O)N(C)C)cc3)CC2)c2ccccc21 (stereo not shown) [Compound A-295, N4-{2-[3-(dimethylamino)-2,3-dihydrospiro[indene-1,4′-piperidin]-1′-yl]phenyl}-N1,N1-dimethylbenzene-1,4-disulfonamide] | 2010 to 8000 nM | –
